Assay results reported in article PMC7392148 (Bioorganic & medicinal chemistry, 2020).

Columns and labels:
CX3CR1 = target: T1, CX3CR1 (Homo sapiens, UniProt P49238); test: PathHunter β-arrestin antagonist assay; assay type: cell-based
T1 sequence (P49238 1-355): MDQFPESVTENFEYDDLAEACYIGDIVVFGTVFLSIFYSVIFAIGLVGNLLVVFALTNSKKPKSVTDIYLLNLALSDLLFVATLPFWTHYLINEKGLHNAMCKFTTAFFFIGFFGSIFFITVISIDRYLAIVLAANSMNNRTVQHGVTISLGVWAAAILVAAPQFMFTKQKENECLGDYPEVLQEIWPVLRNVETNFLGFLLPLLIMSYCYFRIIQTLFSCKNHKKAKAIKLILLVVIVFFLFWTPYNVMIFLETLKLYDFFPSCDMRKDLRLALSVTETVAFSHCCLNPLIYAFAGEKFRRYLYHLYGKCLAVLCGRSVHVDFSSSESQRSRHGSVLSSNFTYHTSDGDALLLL

[1] = target: T2, 5-hydroxytryptamine (serotonin) receptor (HTR2C) (Homo sapiens, UniProt P28335); test: PathHunter β-arrestin antagonist assay; assay type: cell-based
T2 sequence (P28335 33-458): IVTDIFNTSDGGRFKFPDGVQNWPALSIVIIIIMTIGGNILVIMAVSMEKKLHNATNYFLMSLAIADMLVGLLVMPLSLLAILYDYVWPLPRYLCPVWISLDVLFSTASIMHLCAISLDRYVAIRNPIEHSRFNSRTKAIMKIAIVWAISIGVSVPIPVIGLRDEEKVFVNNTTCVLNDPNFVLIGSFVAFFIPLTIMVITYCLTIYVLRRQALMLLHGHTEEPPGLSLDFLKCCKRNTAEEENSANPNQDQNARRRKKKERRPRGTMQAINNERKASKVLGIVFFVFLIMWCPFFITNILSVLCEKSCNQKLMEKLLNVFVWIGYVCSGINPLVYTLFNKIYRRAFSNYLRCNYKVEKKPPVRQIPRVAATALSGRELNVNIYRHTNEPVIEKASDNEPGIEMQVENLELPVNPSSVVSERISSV

CXCR4 = CXCR4 (Homo sapiens, UniProt P61073); test: PathHunter β-arrestin antagonist assay; assay type: cell-based
Chain of CXCR4 (P61073 whole entry): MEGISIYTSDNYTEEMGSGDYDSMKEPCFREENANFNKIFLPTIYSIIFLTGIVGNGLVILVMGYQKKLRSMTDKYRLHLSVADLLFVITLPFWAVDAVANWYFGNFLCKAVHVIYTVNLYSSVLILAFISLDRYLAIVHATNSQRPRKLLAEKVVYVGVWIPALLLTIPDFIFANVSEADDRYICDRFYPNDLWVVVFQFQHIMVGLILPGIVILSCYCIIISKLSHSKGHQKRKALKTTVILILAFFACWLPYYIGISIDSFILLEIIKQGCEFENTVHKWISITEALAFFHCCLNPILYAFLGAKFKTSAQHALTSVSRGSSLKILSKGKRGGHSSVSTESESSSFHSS

panel of 168 GPCRs = test: PathHunter β-arrestin cell-based assays, antagonist primary screen; details: for antagonistic activity in the primary screen: 20 μM, significant = ≥80% inhibition; for hit rate: from the 168 GPCRs tested; for number of GPCRs antagonized at ≥80% inhibition: primary screen at 20 μM
chemokine receptor CCR8 = chemokine receptor CCR8 (Homo sapiens, UniProt P51685); test: PathHunter β-arrestin antagonist assay; assay type: cell-based
Chain of chemokine receptor CCR8 (P51685 whole entry): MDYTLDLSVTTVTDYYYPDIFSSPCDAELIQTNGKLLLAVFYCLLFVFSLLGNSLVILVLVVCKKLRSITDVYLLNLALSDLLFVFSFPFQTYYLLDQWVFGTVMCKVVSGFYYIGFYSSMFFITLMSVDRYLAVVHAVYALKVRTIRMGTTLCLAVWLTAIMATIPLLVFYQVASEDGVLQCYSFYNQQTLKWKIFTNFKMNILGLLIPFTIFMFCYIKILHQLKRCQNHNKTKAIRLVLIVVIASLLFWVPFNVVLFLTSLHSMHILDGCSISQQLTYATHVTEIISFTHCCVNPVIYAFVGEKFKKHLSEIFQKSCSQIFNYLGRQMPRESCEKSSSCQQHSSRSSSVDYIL

chemokine receptor CCR3 = target: T3, chemokine receptor CCR3 (Homo sapiens, UniProt P51677); test: PathHunter β-arrestin antagonist assay; assay type: cell-based
T3 sequence (P51677 1-355): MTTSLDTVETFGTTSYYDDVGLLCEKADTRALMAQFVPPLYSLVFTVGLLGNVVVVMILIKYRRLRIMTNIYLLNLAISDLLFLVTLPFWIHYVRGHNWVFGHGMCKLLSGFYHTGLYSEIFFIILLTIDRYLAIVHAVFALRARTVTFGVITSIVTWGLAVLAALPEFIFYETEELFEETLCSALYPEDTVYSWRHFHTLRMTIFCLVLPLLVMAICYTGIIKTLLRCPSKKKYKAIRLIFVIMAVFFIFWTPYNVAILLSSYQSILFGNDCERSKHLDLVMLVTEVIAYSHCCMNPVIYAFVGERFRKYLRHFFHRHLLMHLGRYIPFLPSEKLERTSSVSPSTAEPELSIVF

[2] = target: T4, neuropeptide S receptor 1 (NPSR1B) (Homo sapiens, UniProt Q6W5P4); test: PathHunter β-arrestin antagonist assay; assay type: cell-based
T4 sequence (Q6W5P4 1-377 isoform Q6W5P4-4): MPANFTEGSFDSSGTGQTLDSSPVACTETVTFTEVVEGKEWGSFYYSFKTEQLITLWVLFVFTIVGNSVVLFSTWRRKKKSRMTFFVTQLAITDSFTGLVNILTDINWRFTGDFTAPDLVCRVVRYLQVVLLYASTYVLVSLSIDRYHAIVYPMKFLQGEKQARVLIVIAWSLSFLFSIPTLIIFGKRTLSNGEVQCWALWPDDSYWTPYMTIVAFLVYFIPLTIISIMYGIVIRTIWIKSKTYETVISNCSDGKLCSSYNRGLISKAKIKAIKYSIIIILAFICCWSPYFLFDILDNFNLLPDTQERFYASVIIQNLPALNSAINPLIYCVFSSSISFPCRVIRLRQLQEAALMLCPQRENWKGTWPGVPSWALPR

[3] = target: T5, prolactin releasing hormone receptor (PRLHR) (Homo sapiens, UniProt P49683); test: PathHunter β-arrestin antagonist assay; assay type: cell-based
T5 sequence (P49683 1-370): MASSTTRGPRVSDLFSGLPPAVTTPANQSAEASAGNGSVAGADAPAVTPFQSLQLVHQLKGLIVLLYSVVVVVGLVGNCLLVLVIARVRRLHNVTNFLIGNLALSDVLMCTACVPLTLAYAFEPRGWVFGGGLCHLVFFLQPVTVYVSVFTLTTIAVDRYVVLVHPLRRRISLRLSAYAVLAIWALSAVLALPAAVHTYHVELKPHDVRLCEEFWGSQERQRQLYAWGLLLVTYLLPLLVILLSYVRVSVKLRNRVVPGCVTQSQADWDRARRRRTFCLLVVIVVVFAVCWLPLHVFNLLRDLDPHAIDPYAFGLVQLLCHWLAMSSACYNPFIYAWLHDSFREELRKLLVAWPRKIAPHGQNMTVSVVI

[4] = target: T6, follicle-stimulating hormone receptor (FSHR) (Homo sapiens, UniProt P23945); test: PathHunter β-arrestin antagonist assay; assay type: cell-based
T6 sequence (P23945 18-695): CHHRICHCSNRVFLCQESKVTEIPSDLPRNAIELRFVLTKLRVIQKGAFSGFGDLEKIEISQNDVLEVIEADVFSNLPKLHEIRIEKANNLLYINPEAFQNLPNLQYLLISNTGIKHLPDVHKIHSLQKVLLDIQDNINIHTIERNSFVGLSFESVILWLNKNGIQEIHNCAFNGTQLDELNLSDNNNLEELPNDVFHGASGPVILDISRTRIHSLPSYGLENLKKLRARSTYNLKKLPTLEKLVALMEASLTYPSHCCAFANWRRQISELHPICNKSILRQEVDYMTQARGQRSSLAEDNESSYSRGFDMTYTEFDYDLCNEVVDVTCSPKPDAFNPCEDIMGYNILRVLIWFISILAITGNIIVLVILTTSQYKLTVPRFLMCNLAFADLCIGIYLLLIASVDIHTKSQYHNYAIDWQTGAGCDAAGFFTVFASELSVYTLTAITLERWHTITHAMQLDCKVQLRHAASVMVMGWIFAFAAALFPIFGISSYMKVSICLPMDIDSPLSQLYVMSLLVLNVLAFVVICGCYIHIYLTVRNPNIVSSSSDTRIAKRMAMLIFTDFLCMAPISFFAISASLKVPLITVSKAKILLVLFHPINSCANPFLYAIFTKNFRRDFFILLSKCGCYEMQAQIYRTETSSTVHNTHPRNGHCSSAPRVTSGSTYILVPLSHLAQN

ADRA2A = test: PathHunter β-arrestin antagonist assay; assay type: cell-based; details: primary screen at 20 μM
AVPR1A = test: PathHunter β-arrestin antagonist assay; assay type: cell-based; details: primary screen at 20 μM
[5] = tested on: hydroxytryptamine receptor (HTR1B); test: PathHunter β-arrestin antagonist assay; assay type: cell-based; details: primary screen at 20 μM
AVPR1B = test: PathHunter β-arrestin antagonist assay; assay type: cell-based; details: primary screen at 20 μM
[6] = tested on: dopamine D2b receptor (DRD2L); test: PathHunter β-arrestin antagonist assay; assay type: cell-based; details: primary screen at 20 μM
AVPR2 = AVPR2 (Homo sapiens, UniProt P30518); test: PathHunter β-arrestin antagonist assay; assay type: cell-based
Chain of AVPR2 (P30518 whole entry): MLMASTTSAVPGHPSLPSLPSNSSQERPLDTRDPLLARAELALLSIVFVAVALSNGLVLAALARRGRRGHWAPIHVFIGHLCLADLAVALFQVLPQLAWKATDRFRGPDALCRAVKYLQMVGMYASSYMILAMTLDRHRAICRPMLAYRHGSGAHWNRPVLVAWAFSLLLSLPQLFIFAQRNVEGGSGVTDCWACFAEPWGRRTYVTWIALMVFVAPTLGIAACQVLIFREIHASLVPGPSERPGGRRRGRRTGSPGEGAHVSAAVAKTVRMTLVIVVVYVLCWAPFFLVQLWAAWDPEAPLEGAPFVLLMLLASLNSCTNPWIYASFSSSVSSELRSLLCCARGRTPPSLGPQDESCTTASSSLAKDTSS

oxytocin receptor (OXTR) = target: T7, oxytocin receptor (OXTR) (Homo sapiens, UniProt P30559); test: PathHunter β-arrestin antagonist assay; assay type: cell-based
T7 sequence (P30559 1-389): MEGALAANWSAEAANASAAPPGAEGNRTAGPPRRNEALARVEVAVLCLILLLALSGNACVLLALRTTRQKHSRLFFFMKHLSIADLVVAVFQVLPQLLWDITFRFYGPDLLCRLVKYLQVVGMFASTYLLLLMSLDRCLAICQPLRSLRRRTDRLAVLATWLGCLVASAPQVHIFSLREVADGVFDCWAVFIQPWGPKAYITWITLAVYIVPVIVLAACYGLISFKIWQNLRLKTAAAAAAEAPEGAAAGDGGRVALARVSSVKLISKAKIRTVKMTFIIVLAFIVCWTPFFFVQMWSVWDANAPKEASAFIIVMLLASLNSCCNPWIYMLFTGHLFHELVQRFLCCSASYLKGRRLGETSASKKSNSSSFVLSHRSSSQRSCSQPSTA

COC(=O)[C@@H]1[C@H]2C[C@@H](c3[nH]c4ccccc4c3CCn3cc(-c4cccc(Cl)c4)nn3)N(C#N)C[C@@H]2CC[C@@H]1O [Y1f]
inhibition at 20 µM (CX3CR1): ≥ 80% | inhibition at 20 µM [1]: ≥ 80% | inhibition at 20 µM (CXCR4): ≥ 80% | antagonistic activity in the primary screen (panel of 168 GPCRs): significant inhibitory activities | hit rate (panel of 168 GPCRs): 3.0% | number of GPCRs antagonized at ≥80% inhibition (panel of 168 GPCRs): five | inhibition at 20 µM (chemokine receptor CCR8): ≥ 80% | inhibition at 20 µM (chemokine receptor CCR3): ≥ 80%

COC(=O)[C@@H]1[C@H]2C[C@@H]([C@@]3(CCn4cc(CCCCO)nn4)C(=O)Nc4ccccc43)N(C#N)C[C@@H]2CC[C@@H]1O [Y2e]
antagonistic activity in the primary screen (panel of 168 GPCRs): inactive

COC(=O)[C@@H]1[C@H]2C[C@@H]3N(CC[C@@]34C(=O)N(c3cncc(OC)n3)c3ccccc34)C[C@@H]2CC[C@@H]1O [Y3h]
antagonistic activity in the primary screen (panel of 168 GPCRs): inactive

COC(=O)[C@@H]1[C@H]2C[C@@H]3OCc4ccccc4-n4c3c(c3ccccc34)CCN(C#N)C[C@@H]2CC[C@@H]1O [Y4a]
antagonistic activity in the primary screen (panel of 168 GPCRs): inactive

COC(=O)[C@@H]1[C@H]2C[C@H]3OCc4ccccc4-n4c3c(c3ccccc34)CCN(C#N)C[C@@H]2CC[C@@H]1O [Y5a]
antagonistic activity in the primary screen (panel of 168 GPCRs): inactive

COC(=O)[C@@H]1[C@H]2C[C@@H](OCc3ccc(Br)cc3)c3[nH]c4ccccc4c3CCN(C#N)C[C@@H]2CC[C@@H]1O [Y6p]
inhibition at 20 µM [2]: ≥ 80% | inhibition at 20 µM [3]: ≥ 80% | antagonistic activity in the primary screen (panel of 168 GPCRs): significant inhibitory activities | hit rate (panel of 168 GPCRs): 2.4% | number of GPCRs antagonized at ≥80% inhibition (panel of 168 GPCRs): four | inhibition at 20 µM [4]: ≥ 80%

COC(=O)[C@@H]1[C@H]2C[C@@H]3N(CC[C@@]34C(=O)N(Cc3cccc(OC)c3)c3ccccc34)C[C@@H]2CC[C@@H]1OCc1cccc(OC)c1 [Y7g]
antagonistic activity in the GPCR screen (ADRA2A): not inhibited | antagonistic activity in the GPCR screen (AVPR1A): inhibited | antagonistic activity in the GPCR screen [5]: not inhibited | antagonistic activity in the primary screen (panel of 168 GPCRs): significant inhibitory activities | hit rate (panel of 168 GPCRs): 2.4% | antagonistic activity in the GPCR screen (AVPR1B): inhibited | antagonistic activity in the GPCR screen [6]: not inhibited

COC(=O)[C@@H]1[C@H]2C[C@H]3c4[nH]c5ccccc5c4CCN3C[C@@H]2CC[C@@H]1O [yohimbine, reference compound]
inhibition at 20 µM (AVPR2): ≤ 5% | antagonistic activity in the GPCR screen [5]: inhibited | inhibition at 20 µM (oxytocin receptor (OXTR)): ≤ 5% | antagonistic activity in the GPCR screen [6]: inhibited
